{"source": "patent US20040023910A1", "about": "“Use of cyr61 in the treatment and diagnosis of human uterine leiomyomas” (priority 2003, published 2004)", "key": {"[1]": {"system": "Cyr61 transcript levels in myometrial tissue", "test": "Ex vivo treatment of myometrial explants with sex steroids and growth factors, Cyr61 mRNA by Northern blotting", "type": "cell-based, human", "text": "(§1) Study subjects and tissue procurement Uterine leiomyomas and matched myometrial specimens were obtained according to protocols approved by the Institutional Review Boards following routine hysterectomy at the Department of Obstetrics and Gynecology, Pennsylvania Hospital. Tissue samples were provided from patients between the ages of 38 to 53 (median age=45) who were not on hormone replacement therapy nor prescribed gonadotropin releasing hormone agonists (n=38). All but one patient had experienced normal menstrual cycles prior to surgery. Tissue specimens were immediately frozen in liquid nitrogen following hysterectomies for total RNA isolation or fixed in 10% neutral-buffered formalin for in situ hybridization. Tissues for ex vivo culturing were placed in phenol-red free DMEM/Ham's F12 media (Gibco BRL, Rockville, Md.) containing 100 U/ml penicillin, […], and 250 ng/ml amphotericine B as a fungizone and transported on ice.\nNorthern blotting for Cyr61 and ER a Total cellular RNA was isolated from myometrial and leiomyoma tissue homogenates by guanidium isothiocynate lysis followed by phenol/chloroform extraction. Subsequently, total cellular RNA (20 μg) was subjected to electrophoresis in a 1% agarose gel containing 1 M formaldehyde. Separated RNA transcripts were transferred onto nylon membranes by […] and subsequently prehybridized at 60° C. in RapidHyb hybridization solution (Amersham, Arlington Heights, Ill.). A 0.41 kb human Cyr61 cDNA fragment was radiolabeled with [α-^32P]-dCTP (3,000 Ci/mmol) using the random-primer technique (Rediprime II, Amersham) and used as the hybridization probe. The radiolabeled probe (1×10^6 cpm/ml) was hybridized to membranes for 4 h at 60° C. Membranes were washed twice in 1×SSPE (0.15 M NaCl, […], and 0.01 M sodium phosphate, pH 7.4) and 0.1% SDS for 15 min at 25° C., followed by a final wash in 0.1×SSPE and 0.1% SDS for 5 min at 60° C. For estrogen receptor α (ERα) expression, membranes were reprobed with a 1.96 kb human ERα cDNA (1.96 kb full length coding region) that was radiolabeled with [α-^32P]-dCTP (3,000 Ci/mmol), hybridized and washed as described above. Relative levels of Cyr61 were normalized to glyceraldehyde-3-phosphate dehydrogenase (GAPDH) after reprobing membranes with a ^32P-radiolabeled oligonucleotide according to manufacturers protocol (endlabeling kit, GibcoBRL, Rockville, Md.).\nTissue treatment with sex steroids and growth factors Tissue specimens obtained as described above were immediately minced into 1-2 mm pieces using sterilized scalpels and forceps and placed in phenol-red free DMEM/Ham's F12 containing antifingal and antibiotic agents only. […]"}, "[2]": {"system": "Cyr61 in leiomyoma tissues", "test": "Ex vivo treatment of leiomyoma explants with sex steroids and growth factors, Cyr61 mRNA by Northern blotting", "type": "cell-based, human", "details": "leiomyoma explants ex vivo (n=8), 10 nM E2 or 10 ng/ml bFGF, 1 h", "text": "as §1\nNorthern blotting for Cyr61 and ER a Total cellular RNA was isolated from myometrial and leiomyoma tissue homogenates by guanidium isothiocynate lysis followed by phenol/chloroform extraction. Subsequently, total cellular RNA (20 μg) was subjected to electrophoresis in a 1% agarose gel containing 1 M formaldehyde. […]"}, "[3]": {"system": "Cyr61 in murine and human fibroblasts", "details": "Nathans et al. 1988; cited from earlier work"}}}
{"compound": "C[C@]12CC[C@@H]3c4ccc(O)cc4CC[C@H]3[C@@H]1CC[C@@H]2O", "note": "[E2, 17β-estradiol]", "values": [{"measurement": "increase in Cyr61 transcript levels", "setting": "[1]; myometrial explants ex vivo (n=8), 1 h, 10 nM E2, 10 ng/ml bFGF or serum, normalized to GAPDH", "value": "greater than 2 fold"}, {"measurement": "upregulation of Cyr61 in leiomyoma tissues", "setting": "[2]", "value": "neither E2 nor bFGF was able to upregulate Cyr61"}]}
{"compound": "C[C@]12CC[C@@H]3c4ccc(O)cc4C[C@@H](CCCCCCCCC[S+]([O-])CCCC(F)(F)C(F)(F)F)[C@H]3[C@@H]1CC[C@@H]2O", "note": "(stereo partly shown) [ICI 182,780]", "values": [{"measurement": "inhibition of E2 mediated induction of Cyr61", "setting": "[1]; myometrial explants ex vivo, combination of 10 nM E2 and 1 μM ICI 182,780, 1 h", "value": "completely inhibited"}]}
{"compound": "CCC(=O)[C@@]1(C)CC[C@H]2[C@@H]3CCC4=CC(=O)CCC4=C3CC[C@@]21C", "note": "[R5020]", "values": [{"measurement": "effect on Cyr61 expression", "setting": "[1]; myometrial explants ex vivo, 10 nM R5020, 1 h", "value": "no effect on Cyr61 expression"}, {"measurement": "synergy with E2 on Cyr61 expression", "setting": "[1]; myometrial explants ex vivo, combination of 10 nM E2 and 10 nM R5020, 1 h", "value": "nor did it synergize with E2"}]}
{"compound": "bFGF: basic fibroblast growth factor, purchased from R & D Systems, Inc.", "values": [{"measurement": "upregulation of Cyr61 in leiomyoma tissues", "setting": "[2]", "value": "neither E2 nor bFGF was able to upregulate Cyr61"}, {"measurement": "induction of Cyr61", "setting": "[3]", "value": "induces Cyr61"}]}
